From patent US7297506B2, “Assay for nucleotide triphosphate using a modified nucleoside diphosphate kinase comprising a fluorescent label” (Medical Research Council, priority 1999, dated 2007)
Where two headings read alike, the source gives them in different places.

Tests used:
[1] = system: human rho protein; assay: Nucleotide exchange and GTP hydrolysis of rho measured with IDCC-NDPK˜P fluorescence; format: biochemical; settings: 2 μM Rho.GDP, 10 μM GTP, 30° C., pH 7.6
Description: The rate of nucleotide exchange from a small G protein, rho (which also has GTPase activity), was determined in solution. The rate of hydrolysis was also obtained indirectly.
Human rho protein was prepared in a form containing tightly-bound GDP. In the presence of excess added GTP, nucleotide exchange occurs such that GDP is released into free solution where it can be measured according to the invention. Once GTP is bound to rho, its hydrolysis is slowly catalysed by the protein at a steady-state rate. This creates more GDP, which is measured once it is released.
Fluorescence emission was recorded for a 200 μl solution containing 20 mM Tris/HCl, pH 7.6, 1 mM MgCl2, 100 mM (NH4)2SO4, 10 μM GTP, and 2 μM IDCC-NDPK˜P. The reaction was started at t=0 by adding 2 μM Rho.GDP. Excitation was at 440 nm with the emission monochromator set to 475 nm. The temperature was 30° C. The data were normalised using the fluorescence change for 1 μM GDP obtained from a titration of IDCC-NDPK˜P with different GTP/GDP ratios. […] The exponential “burst” represents the exchange of GDP bound to rho for GTP. The linear phase represents steady state: exchange of further GTP onto rho is limited by hydrolysis to GDP.

[2] = in ethanol, known value; cited from earlier work
[3] = Fluorescence quantum yield determination; format: physicochemical; settings: in buffer
Description: There is a shift of 6 nm in the absorbance maxima of the fluorophore between IDCC-NDPK and IDCC-NDPK˜P, but only 2 nm in the emission maxima. The fluorescence quantum yields for the two forms of the labelled enzyme were determined using as reference the known value of 0.83 for Coumarin 314 in ethanol.

Row | Compound | rate constant of exponential phase (exchange of bound GDP for GTP) [1] [min⁻¹] | slope of linear phase (steady state GTP hydrolysis) [1] [nM GDP min^−1] | fluorescence quantum yield [2] | fluorescence quantum yield [3]
1 | Rho.GDP: human rho protein, a small G protein with GTPase activity, prepared with tightly-bound GDP | 0.196 | 41.2 | – | –
2 | CCOC(=O)c1cc2cc3c4c(c2oc1=O)CCCN4CCC3 [Coumarin 314] | – | – | 0.83 | 0.52
